# Data as given in PMC6105827, “Antitrypanosomal 8-Hydroxy-Naphthyridines Are Chelators of Divalent Transition Metals” (Antimicrobial Agents and Chemotherapy, 2018).
# Columns and labels:
# THP-1 cells = assay: THP-1 cell sensitivity; format: cell-based; settings: Homo sapiens
# Protocol: L. donovani intramacrophage ([7]), HepG2 ([55]), T. brucei ([56]), and L. donovani promastigote ([57]) compound sensitivity assays were carried out as described previously. Human HepG2 and THP-1 cells used in these assays were provided by the ATCC. Data were processed by using GRAFIT (version 5.0.4; Erithacus Software) and fitted to a 2-parameter equation to obtain the effective concentration inhibiting growth by 50% (EC50). Data are presented as the means of results from at least two independent experiments.
# [1] = Spectrophotometric UV-Vis titration and Job's plot of binding to divalent cations; format: physicochemical
# Protocol: UV-visible (UV-Vis) titrations were carried out essentially as described previously ([65], [66]). Aliquots of metal divalent cations (concentrated stocks were made initially in water and then diluted in methanol) were added to a fixed concentration of 50 μM 8-HNT compound in methanol. After each aliquot addition, the incubation mixture was left to stabilize for 5 min at 25°C prior to scanning. Wavelength scanning was carried out at between 260 and 510 nm by using a UV-2401 PC UV-Vis spectrophotometer (Shimadzu). For Job's plot analyses ([66]), the combined concentration of 8-HNT and cation was fixed at 200 μM, and only the molar ratio of cation versus 8-HNT compound varied. Changes of the absorption at 475, 390, and 375 nm were indicative of cation complex formation with compounds 1 to 3, respectively. Specific absorbance at these wavelengths was determined and plotted against the molar ratio of compound to cation to determine complex stoichiometry ([66]).
compound,measurement,setting,value
Cc1nnc(-c2nc(NCc3ccc(Cl)cc3)c3cccnc3c2O)[nH]1 [Compound 1],EC50,THP-1 cells,> 50 µM
same,Zn^2+ concentration at which binding is saturable,"[1]; 50 μM compound, absorbance at 475 nm",25 µM
same,"Job's plot intercept, molar fraction (compound to Zn^2+)","[1]; combined concentration 200 μM in methanol, absorbance 475/390/375 nm",0.34
